Measured values as given in patent publication US5008245A (University of Kentucky Research Foundation, priority 1988, dated 1991).
Read-outs that look alike come from different tables or passages of the source.

Legend:
Format in all cases: biochemical
[1] = molecular target: PPE (porcine pancreatic elastase) (Sus scrofa, UniProt P00772); assay: Inhibition of PPE by peptidyl carbamates; conditions: Ex. 67 table, N.I. = no inhibition at I/E = 100
Method: (§1) These studies are conducted to show the activities of some of the compounds of this invention as inhibitors of various forms of the enzyme elastase.
^c N.I. refers to no inhibition at I/E = 100.

[2] = molecular target: T1, HLE (human leukocyte elastase) (Homo sapiens, UniProt P08246); assay: Inhibition of HLE by desmosine-like peptidyl carbamates, steady state kinetics (Dixon plot, Lineweaver-Burk slope replot)
T1 sequence (P08246 30-267): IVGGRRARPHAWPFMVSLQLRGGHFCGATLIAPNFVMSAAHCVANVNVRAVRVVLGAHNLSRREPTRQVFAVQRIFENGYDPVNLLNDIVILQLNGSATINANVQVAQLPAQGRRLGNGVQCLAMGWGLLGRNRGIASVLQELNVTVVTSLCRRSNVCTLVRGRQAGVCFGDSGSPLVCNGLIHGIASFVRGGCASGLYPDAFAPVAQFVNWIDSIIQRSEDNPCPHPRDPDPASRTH
Method: ^c Lines contained linear regression analysis correlations of >0.950.
^d Ki values determined from LineweaverBurk slope replots. Slope
were obtained from lines with linear regression analysis correlations of
^a Ki value was determined by steady state kinetics.
as §1

enzyme elastase = assay: Inhibition of the enzyme elastase, Ki / inhibitor dissociation constants; conditions: p-nitrophenyl at P1 replaced by N-phenylthiotetrazole
[3] = Table 1, variations in P4, Dixon plot, linear regression correlations >0.950, read-out: Ki value (μM) Dixon
[4] = Table 1, variations in P4, Lineweaver-Burk slope replots, correlations >0.990, read-out: Ki value (μM) Replot
[5] = Ki values (μM) Dixon, Table 2, variations in P3, Dixon plot, linear regression correlations >0.950
[6] = Ki values (μM) Replot, Table 2, variations in P3, Lineweaver-Burk slope replots, correlations >0.990
[7] = Table 2, variations in P3, Dixon plot, linear regression correlations >0.950, read-out: Ki values (μM) Dixon
[8] = Table 2, variations in P3, Lineweaver-Burk slope replots, correlations >0.990, read-out: Ki values (μM) Replot

Chain of PPE (porcine pancreatic elastase) (P00772 27-266): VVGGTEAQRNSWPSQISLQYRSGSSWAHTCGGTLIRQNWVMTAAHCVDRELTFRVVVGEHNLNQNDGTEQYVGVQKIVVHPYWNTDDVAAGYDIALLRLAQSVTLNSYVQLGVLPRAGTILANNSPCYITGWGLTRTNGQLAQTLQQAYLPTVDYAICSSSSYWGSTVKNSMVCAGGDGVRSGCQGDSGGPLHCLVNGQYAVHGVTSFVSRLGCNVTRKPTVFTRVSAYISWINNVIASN

Compound | Ki (μM) PPE ([1]; variations at P4) | Ki [2, 3] [µM] | Ki [2, 4] [µM] | Ki [2, 7] [µM] | Ki [2, 8] [µM] | further results
COC(=O)CCC(=O)NC(CCCCNC(=O)OCc1ccccc1)C(=O)NC(C)C(=O)N1CCCC1C(=O)CN(C(=O)Oc1ccc([N+](=O)[O-])cc1)C(C)C (single isomer, unassigned) [Compound 44a, p-Nitrophenyl N-[Methoxysuccinyl-(Nε -carbobenzoxy)lysylalanylprolylmethyl]-N-isopropylcarbamate] | N.I. | 0.56 | 0.47 | – | – | –
COC(=O)CCC(=O)NC(CCCCNC(=O)OCc1ccccc1)C(=O)NC(C)C(=O)N1CCCC1C(=O)CN(C(=O)Oc1ccc([N+](=O)[O-])cc1)C(C)C (single isomer, unassigned) [Compound 44b, p-Nitrophenyl N-[Methoxysuccinyl-(Nε -carbobenzoxy)lysylalanylprolylmethyl]-N-isopropylcarbamate] | N.I. | 7.3 | 7.63 | – | – | –
COC(=O)CCC(=O)NC(CCCCNC(=O)c1ccccc1)C(=O)NC(C)C(=O)N1CCCC1C(=O)CN(C(=O)Oc1ccc([N+](=O)[O-])cc1)C(C)C (single isomer, unassigned) [Compound 45a, p-Nitrophenyl N-[Methoxysuccinyl-(Nε -benzoyl)lysylalanylprolylmethyl]-N-isopropylcarbamate] | N.I. | 0.73 | 0.38 | – | – | –
COC(=O)CCC(=O)NC(CCCCNC(=O)c1ccccc1)C(=O)NC(C)C(=O)N1CCCC1C(=O)CN(C(=O)Oc1ccc([N+](=O)[O-])cc1)C(C)C (single isomer, unassigned) [Compound 45b, p-Nitrophenyl N-[Methoxysuccinyl-(Nε -benzoyl)lysylalanylprolylmethyl]-N-isopropylcarbamate] | N.I. | 3.7 | 3.13 | – | – | –
COC(=O)CCC(=O)NC(CCCNC(=O)OCc1ccccc1)C(=O)NC(C)C(=O)N1CCCC1C(=O)CN(C(=O)Oc1ccc([N+](=O)[O-])cc1)C(C)C (single isomer, unassigned) [Compound 46a, p-Nitrophenyl N-[Methoxysuccinyl-(Nδ -carbobenzoxy)ornithylalanylprolylmethyl]-N-isopropylcarbamate] | N.I. | 0.43 | 0.36 | – | – | Ki ([2]; Ex. 67 table, variations at P4, read-out: Ki (μM) HLE): 0.65 µM
COC(=O)CCC(=O)NC(CCCNC(=O)OCc1ccccc1)C(=O)NC(C)C(=O)N1CCCC1C(=O)CN(C(=O)Oc1ccc([N+](=O)[O-])cc1)C(C)C (single isomer, unassigned) [Compound 46b, p-Nitrophenyl N-[Methoxysuccinyl-(Nδ -carbobenzoxy)ornithylalanylprolylmethyl]-N-isopropylcarbamate] | N.I. | 8.8 | 7.95 | – | – | –
COC(=O)CCC(=O)N[C@@H](C)C(=O)N[C@@H](CCCCNC(=O)OCc1ccccc1)C(=O)N1CCC[C@@H]1C(=O)CN(C(=O)Oc1ccc([N+](=O)[O-])cc1)C(C)C [Compound 48b] | – | – | – | – | – | Ki (μM) PPE ([1]; variations at P3): N.I.; Ki ([2]; Ki (μM) HLE, Ex. 67 table, variations at P3): 11.3 µM; Ki [2, 5]: 20.4 µM; Ki [2, 6]: 11.3 µM
COC(=O)CCC(=O)N[C@@H](C)C(=O)N[C@@H](CCCCNC(=O)c1ccccc1)C(=O)N1CCC[C@H]1C(=O)CN(C(=O)Oc1ccc([N+](=O)[O-])cc1)C(C)C [Compound 49a] | – | – | – | 1.6 | 0.31 | Ki ([1]; variations at P3): 3.8 µM
COC(=O)CCC(=O)N[C@@H](C)C(=O)N[C@@H](CCCCNC(=O)c1ccccc1)C(=O)N1CCC[C@H]1C(=O)CN(C(=O)Oc1ccc([N+](=O)[O-])cc1)C(C)C [Compound 49b] | – | – | – | 34 | 38.5 | Ki (μM) PPE ([1]; variations at P3): N.I.
COC(=O)CCC(=O)NC(C)C(=O)NC(CCCNC(=O)OCc1ccccc1)C(=O)N1CCCC1C(=O)CN(C(=O)Oc1ccc([N+](=O)[O-])cc1)C(C)C (stereo not shown) [Compound 50b, p-Nitrophenyl N-[Methoxysuccinylalanyl-(Nδ -carbobenzoxy)ornithylprolymethyl]-N-isopropylcarbamate] | – | – | – | 22.2 | 19.2 | Ki (μM) PPE ([1]; variations at P3): N.I.
COC(=O)CCC(=O)NC(C)C(=O)NC(CCCNC(=O)c1ccccc1)C(=O)N1CCCC1C(=O)CN(C(=O)Oc1ccc([N+](=O)[O-])cc1)C(C)C (stereo not shown) [Compound 51a] | – | – | – | 5.33 | 2.14 | Ki ([1]; variations at P3): 14.3 µM
COC(=O)CCC(=O)N[C@@H](C)C(=O)N[C@@H](CCCNC(=O)c1ccccc1)C(=O)N1CCC[C@@H]1C(=O)CN(C(=O)Oc1ccc([N+](=O)[O-])cc1)C(C)C [Compound 51b] | – | – | – | – | – | Ki (μM) PPE ([1]; variations at P3): N.I.; Ki [2, 5]: 104 µM; Ki [2, 6]: 100 µM
COC(=O)CCC(=O)NC(C)C(=O)NC(CCCCNC(=O)OCc1ccccc1)C(=O)N1CCCC1C(=O)CN(C(=O)Sc1nnnn1-c1ccccc1)C(C)C (stereo not drawn) [PC5, S-(1-Phenyl-5-tetrazoyl)-N-[methoxysuccinyl-alanyl-(N6-carbonbenzoxyl)lysylprolylmethyl]-N-isopropyl thiocarbamate] | – | – | – | – | – | Ki (enzyme elastase): 0.02 µM
COC(=O)CCC(=O)NC(CCCNC(=O)OCc1ccccc1)C(=O)NC(C)C(=O)N1CCCC1C(=O)CN(C(=O)Sc1nnnn1-c1ccccc1)C(C)C (stereo not drawn) [PC6, S-(1-Phenyl-5-tetrazoyl)-N-[methoxysuccinyl-Nδ-carbobenzoxyl) ornithyl alanyl prolyl methyl]-N-isopropyl thiocarbamate] | – | – | – | – | – | Ki (enzyme elastase): 0.003 µM
p-Nitrophenyl N-[Methoxysuccinyl-(Nδ -benzoyl)ornithylalanylprolylmethyl]-N-isopropylcarbamate [Compound 47a] | N.I. | 0.65 | 0.19 | – | – | –
p-Nitrophenyl N-[Methoxysuccinyl-(Nδ -benzoyl)ornithylalanylprolylmethyl]-N-isopropylcarbamate [Compound 47b] | N.I. | 10 | 17.7 | – | – | –
p-Nitrophenyl N-[Methoxysuccinyl-(Nδ -carbobenzoxy)lysylprolylmethyl]-N-isopropylcarbamate [Compound 48a] | – | – | – | 1.1 | 0.22 | Ki ([1]; variations at P3): 3.4 µM
p-Nitrophenyl N-[Methoxysuccinylalanyl-Nδ -carbobenzoxy)ornithylprolylmethyl]-N-isopropylcarbamate [Compound 50a] | – | – | – | 0.75 | 1.05 | Ki ([1]; variations at P3): 8.65 µM
